Literature values as cited in patent publication US20070231388A1, “Novel Pharmaceutical Dosage Form and Manufacturing Process” (Atlana Pharma AG, priority 2004, published 2007).

Details: in comparison to pantoprazole itself or to pantoprazole sodium sesquihydrate

stability properties: improved stability properties
SMILES: COc1ccnc(C[S+]([O-])c2nc3cc(OC(F)F)ccc3[n-]2)c1OC.COc1ccnc(C[S+]([O-])c2nc3cc(OC(F)F)ccc3[n-]2)c1OC.O.O.[Mg+2] (stereo not shown) [Magnesium bis[5-[difluoromethoxy]-2-[[3,4-dimethoxy-2-pyridinyl]-methyl]sulfinyl]-1H-benzimidazolide]dihydrate]
